Values joined by “and” are separate entries in the source; they are usually repeats but may differ in a detail not shown here. Identical values can stand only once.
What was measured:
[1] = target: T1, Lambda PP (Lambda Protein Phosphatase) (Escherichia phage lambda, UniProt P03772); assay: PhosphataseProfiler screen: Lambda PP; type: biochemical; conditions: replicates
T1 construct: purchased Eurofins Pharma Discovery Services UK
Procedure: (§1) Compound DJ001 was evaluated in a PhosphataseProfiler™ screen at 10 μM and 1 μM (2.7 μg/mL and 0.27 μg/mL) concentrations at Eurofins Pharma Discovery Services UK (Study number UK022-0004033) against a panel of 21 Phosphatases. In each experiment, the respective reference antagonist/agonist was tested directly with DJ001 and the data were compared with historical values determined at Eurofins. DJ001 compound inhibition was calculated as percentage inhibition of the enzymatic activity compared with control.

[2] = target: T2, MKP5 (Mitogen-activated Protein Kinase Phosphatase 5) (Homo sapiens, UniProt Q9Y6W6); assay: PhosphataseProfiler screen: MKP5; type: biochemical; conditions: 0.27 g/mL DJ001; replicates
T2 construct: purchased Eurofins Pharma Discovery Services UK
Procedure: as §1

[3] = target: T3, TMDP (Dual Specificity Phosphatase 13) (Homo sapiens, UniProt Q9UII6); assay: PhosphataseProfiler screen: TMDP; type: biochemical; conditions: replicates
T3 construct: purchased Eurofins Pharma Discovery Services UK
Procedure: as §1

[4] = tested on: BM cells from irradiated CD45.2+ mice in CD45.1+ recipient mice; assay: HSC competitive repopulation assay; type: in vivo, mouse
Procedure: Femurs and tibiae were collected from killed C57BL/6 or Ptprs^−/− mice and flushed with IMDM containing 10% FBS and 1% penicillin–streptomycin for BM cells. PB was collected through sub-mandibular puncture. Cells were filtered through a 40 μM strainer and then treated with ACK lysis buffer (Sigma Aldrich) before antibody staining for flow cytometry. For KSL and CD150^+CD48^−KSL cell analysis, BM cells were stained with allophycocyanin (APC)-and Cy7-conjugated anti-mouse Sca1 (BD Biosciences, #560654, 1:100), phycoerythrin (PE)-conjugated anti-mouse c-kit (BD Biosciences, #553355, 1:100), V450 lineage cocktail (BD Biosciences, 561301, 1:10), Alexa Fluor 488-conjugated anti-mouse CD48 (BioLegend, #103414, 1:100), and Alexa Fluor 647-conjugated anti-mouse CD150 (Biolegend, #115918, 1:100) antibodies. […]
CFC assays (colony-forming unit-granulocyte monocyte), burst-forming unit-erythroid, and CFU-GEMM were performed using MethoCult GF M3434 (Stemcell Technologies)[6]. […] Multilineage donor hematopoietic cell engraftment was measured in the PB by flow cytometry.

[5] = tested on: RHOA-GTP in BM lin− cells; assay: G-LISA activation assay: RHOA-GTP; type: cell-based, mouse; conditions: for RHOA-GTP level (G-LISA): Supplementary Figure 7b (left panel)
Procedure: The RAC1-GTP, RHOA-GTP, and CDC42-GTP activation levels in BM lin^− cells were measured using a colorimetric-based RAC1-, RHOA-, and CDC42 G-LISA Activation Assay Kit (Cytoskeleton, Inc.). BM cells from femurs and tibias were isolated from 12-week-old Ptprs^+/+ and Ptprs^−/− mice. Cells were then depleted of lineage-committed cells with Direct Lineage Cell Depletion Kit (Miltenyi Biotec, #130-110-470; 1:5). The BM lin^− cell fraction was then serum starved in Iscove’s modified Dulbecco’s medium (IMDM) and treated with either vehicle (equal amount of DMSO) or 1 μg/mL DJ001 for 10 min at 37 °C. After treatment, cells were washed with ice-cold PBS and then placed in lysis buffer supplemented with protease inhibitor. Lysate concentrations were measured by Pierce^TM BCA Protein Assay Kit (ThermoFisher Scientific). G-LISA was performed according to the manufacturer’s instructions. Briefly, 12.5 μg of lysates was added to a GTP-binding protein pre-coated plate and active RAC1-GTP, RHOA-GTP, or CDC42-GTP levels were measured at 490 nm using a PowerWave XS2 microplate reader (BioTek).

BCL-XL in BM KSL cells = assay: BCL-XL protein intracellular flow cytometry of BM KSL cells; type: cell-based, mouse
Procedure: Intracellular flow cytometric analysis was performed on irradiated (300 cGy) or non-irradiated, sorted KSL cells after treatment with 1 μg/mL DJ001 or control (equal volumes of DMSO) for 24 h. At 24 h after irradiation, cells were fixed with 4% PFA for 10 min, followed by permeabilization using 0.25% saponin in PBS. Cells were washed again and stained with antibody at the recommended concentrations for 30 min at RT. Intracellular antibodies and phospho-flow antibodies used were as follows: FITC-conjugated anti-BCL-XL (Abcam, #26148, 1:100), active RAC1-GTP antibody (NewEast Biosciences, #26903, 1:100) and anti-PAK1 (phospho S144) + PAK2 (phospho S141) + PAK3 (phospho S154) antibody (Abcam, #40795, 1:100), and FITC-conjugated goat anti-rabbit IgG H&L (Abcam, #97050, 1:200).

BM KSL cells = assay: Cell cycle analysis (Ki67/7AAD) of BM KSL cells; type: cell-based, mouse; conditions: non-irradiated BM KSL cells, 36 hours

T3 sequence (Q9UII6 whole entry, species assumed): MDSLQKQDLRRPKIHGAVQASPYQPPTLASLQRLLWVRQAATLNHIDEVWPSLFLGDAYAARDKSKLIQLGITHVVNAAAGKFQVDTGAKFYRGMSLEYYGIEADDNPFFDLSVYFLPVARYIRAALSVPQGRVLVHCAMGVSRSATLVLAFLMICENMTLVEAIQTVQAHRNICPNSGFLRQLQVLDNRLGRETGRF
T2 sequence (Q9Y6W6 whole entry, species assumed): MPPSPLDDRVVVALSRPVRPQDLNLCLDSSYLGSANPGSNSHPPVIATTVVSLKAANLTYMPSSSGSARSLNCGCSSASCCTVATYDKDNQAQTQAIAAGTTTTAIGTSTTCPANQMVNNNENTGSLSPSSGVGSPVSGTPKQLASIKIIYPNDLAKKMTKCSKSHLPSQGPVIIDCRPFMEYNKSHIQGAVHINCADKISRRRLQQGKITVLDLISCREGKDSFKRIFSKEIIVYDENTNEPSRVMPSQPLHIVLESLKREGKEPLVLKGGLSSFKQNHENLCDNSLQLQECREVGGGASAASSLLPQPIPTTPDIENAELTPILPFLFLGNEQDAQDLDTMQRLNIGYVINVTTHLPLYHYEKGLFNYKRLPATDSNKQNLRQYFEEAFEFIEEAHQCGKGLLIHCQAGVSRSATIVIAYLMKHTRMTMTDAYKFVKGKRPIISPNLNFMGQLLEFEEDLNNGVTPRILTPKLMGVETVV
T1 sequence (P03772 whole entry): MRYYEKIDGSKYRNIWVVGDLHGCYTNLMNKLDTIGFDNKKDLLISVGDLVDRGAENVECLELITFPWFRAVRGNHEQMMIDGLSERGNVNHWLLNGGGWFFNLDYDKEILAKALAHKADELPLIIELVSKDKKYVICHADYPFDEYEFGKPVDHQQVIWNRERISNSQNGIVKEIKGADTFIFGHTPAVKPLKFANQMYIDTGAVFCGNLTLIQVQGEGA

O=C(/C=C\Nc1cccc([N+](=O)[O-])c1)c1ccccc1 [DJ001, (Z)-3-((3-nitrophenyl)amino)-1-phenylprop-2-en-1-one]
Supplementary Figure 1: Lambda PP activity ([1]; 0.27 μg/mL DJ001): 126 and 132 and 133 | Supplementary Figure 1: Lambda PP activity ([1]; 2.7 μg/mL DJ001): 118 and 122 and 125 | Supplementary Figure 1: MKP5 activity [2]: 91 and 87 and 88 | Supplementary Figure 1: TMDP activity ([3]; 2.7 μg/mL DJ001): 101 | Supplementary Figure 1: TMDP activity ([3]; 0.27 g/mL DJ001): 108 and 103 (2×) | percentages of donor myeloid cells, B cells and T cells in PB vs control ([4]; 20 weeks post transplant): significantly increased percentages | donor hematopoietic reconstitution over time compared with controls ([4]; donors: 750 cGy, 5 mg/kg DJ001 daily, BM at day +10): significantly increased donor hematopoietic reconstitution | activation of RhoA ([5]; BM lin− cells, 1 μg/mL DJ001, 10 min): did not alter the activation | RHOA-GTP level (G-LISA) ([5]; Ptprs+/+ cells): 0.1099 and 0.0821 and 0.1369 | RHOA-GTP level (G-LISA) ([5]; Ptprs-/- cells): 0.1117 and 0.0668 and 0.0845 | BCL-XL protein levels (BCL-XL in BM KSL cells; 300 cGy-irradiated BM KSL cells): increased | Figure 3h: BCL-XL protein in BM KSL cells (BCL-XL in BM KSL cells; irradiated cells, replicates): 17.43 and 16.61 and 16.35 and 15.49 and 16.56 and 12.16 | cell cycle status (BM KSL cells): did not alter the cell cycle status

Source: publication PMC6694155, “PTPσ inhibitors promote hematopoietic stem cell regeneration” (Nature Communications, 2019)
